{"source": "paper PMC8226262", "about": "“Licarin-B Exhibits Activity Against the Toxoplasma gondii RH Strain by Damaging Mitochondria and Activating Autophagy” (Frontiers in Cell and Developmental Biology, 2021)", "key": {"[1]": {"tested_on": "HFF cells", "experiment": "Cytotoxicity assay (CCK-8)", "format": "cell-based, Human", "procedure": "In brief, HFFs (1 × 10^4 cells/well) were seeded in 96-well plates in a monolayer and incubated with different concentrations of the compounds in DMEM with 1% FBS; DMEM without compound was used as a control. After 24 h, CCK-8 solution (Biomake, United States) was added, and absorbance was measured at 450 nm using a Multiskan GO instrument (Thermo Fisher Scientific, MA, United States). The cell viability values are expressed as percentages of the control value (considered as 100% survival). […] Triplicate independent experiments were performed."}, "[2]": {"tested_on": "T. gondii tachyzoites (strain RH) in HFFs", "experiment": "In vitro screening of anti-T. gondii activity (Giemsa staining, qPCR)", "format": "cell-based, Toxoplasma gondii", "conditions": "24 h; for inhibition at 20 µg/mL: 20 μg/mL", "procedure": "Human foreskin fibroblasts were seeded in 6-well plates and infected with 3 × 10^4 fresh T. gondii tachyzoites. After 8 h, the natural compounds in DMEM supplemented with 1% FBS were added. Sulfadiazine and pyrimethamine were included as positive drug controls. After incubation for 24 h, the cells were washed twice with PBS, stained with Giemsa, and observed by light microscopy. In addition, total DNA was isolated from the cells using DNAiso Reagent (Takara), and a 529-bp repeat element was amplified by quantitative polymerase chain reaction (qPCR) with the following primers: Tox-F (5′-AGGAGAGATATCAGGACTGTAG-3′), Tox-R (5′-GCGTCGTCTCGTCTAGATCG-3′), and the Taqman probe Tox-TP (6-Fam CCGGCTTGGCTGCTTTTCCT BHQ1), as described in a previous study ([Zhang J.L. et al., 2019]). The inhibition rates against T. gondii proliferation for the natural compounds at concentrations with no HFF toxicity were calculated, and the inhibition rate in each treatment group was presented as the % of the control group. The experiment was repeated three times."}, "[3]": {"tested_on": "T. gondii tachyzoite intracellular proliferation in HFFs", "experiment": "Anti-proliferation activity of licarin-B (qPCR)", "format": "cell-based, Toxoplasma gondii", "conditions": "Toxoplasma gondii, 0.4 μg/mL, 24 h", "procedure": "DMEM without drugs was used as a parasite control. […] After 24 h, the cells were washed twice with PBS, and total genomic DNA from the cells was obtained as described in a previous study ([Zhang J.L. et al., 2019]). […] The results represent the means ± standard deviations (SD) from at least three independent experiments. The EC50 of licarin-B for tachyzoite growth inhibition was plotted as a function of the compound concentration via non-linear curve analysis using SPSS 19.0 software (SPSS Inc., Chicago, IL, United States). The results of the anti-invasion and anti-proliferation tests, the in vivo assays of the survival rate and parasite burden and data comparisons between the parasite control and treatment groups were statistically analyzed by one-way analysis of variance (ANOVA) using SPSS software."}, "[4]": {"tested_on": "T. gondii invasion of HFFs", "experiment": "Anti-invasion assessment in vitro (qPCR)", "format": "cell-based, Toxoplasma gondii", "conditions": "Toxoplasma gondii, 0.4 μg/mL, 2 h of infection, read-out: Anti-invasion inhibition rate", "procedure": "Human foreskin fibroblasts were seeded in 6-well plates and incubated with different concentrations of licarin-B (4.5, 9, 13.5, 18, or 22.5 μg/mL), sulfadiazine (0.4 μg/mL, as a positive control) or without drugs in DMEM supplemented with 1% FBS and then infected with 3 × 10^6 fresh parasites per well. The anti-invasion capability of licarin-B was determined by qPCR after 2 h of infection, as described in a previous study ([Zhang J.L. et al., 2019]). Triplicate independent experiments were performed."}, "[5]": {"conditions": "Toxoplasma gondii, 4 μg/mL, T. gondii proliferation in HFFs, read-out: Mean inhibition rate (% of control)"}, "[6]": {"conditions": "Toxoplasma gondii, T. gondii proliferation in HFFs, read-out: Mean inhibition rate (% of control)"}, "[7]": {"conditions": "Toxoplasma gondii, read-out: Mean inhibition rate (% of control)"}, "[8]": {"conditions": "80 μg/mL, T. gondii proliferation in HFFs"}}, "note": "Where two headings read alike, the source gives them in different places."}
{"compound": "COc1cc(O)ccc1/C=C/C(=O)c1ccc(O)cc1", "note": "[Echinatin, echinatin]", "values": [{"measurement": "Natural compound concentration range with no toxicity to HFF cells", "setting": "[1]; CCK-8, 24 h, DMEM with 1% FBS", "value": "0.01 to 4", "unit": "µg/mL"}, {"measurement": "inhibition at 4 µg/mL", "setting": "[2]; [5]", "value": "63.1 ± 10.7", "unit": "%"}]}
{"compound": "COc1cc2c(=O)c(-c3ccc(O)cc3)coc2cc1O", "note": "[Glycitein, glycitein]", "values": [{"measurement": "Natural compound concentration range with no toxicity to HFF cells", "setting": "[1]; CCK-8, 24 h, DMEM with 1% FBS", "value": "0.01 to 40", "unit": "µg/mL"}, {"measurement": "inhibition at 40 µg/mL", "setting": "[2]; Toxoplasma gondii, 40 μg/mL, T. gondii proliferation in HFFs, read-out: Mean inhibition rate (% of control)", "value": "8.11 ± 2.19", "unit": "%"}]}
{"compound": "CC1(C)O[C@H]2CC(=O)OC[C@]23[C@H]2CC[C@@]4(C)[C@H](c5ccoc5)OC(=O)[C@H]5O[C@]54[C@]2(C)C(=O)C[C@@H]13", "note": "[Limonin, limonin]", "values": [{"measurement": "Natural compound concentration range with no toxicity to HFF cells", "setting": "[1]; human, 24 h", "value": "0.01 to 80", "unit": "µg/mL"}, {"measurement": "inhibition at 80 µg/mL", "setting": "[2]; Toxoplasma gondii, 80 μg/mL, T. gondii proliferation in HFFs, read-out: Mean inhibition rate (% of control)", "value": "72.2 ± 9.78", "unit": "%"}]}
{"compound": "O=C(/C=C/c1ccc(O)cc1)c1ccc(O)cc1O", "note": "[Isoliquiritigenin, isoliquiritigenin]", "values": [{"measurement": "Natural compound concentration range with no toxicity to HFF cells", "setting": "[1]; human, 24 h", "value": "0.01 to 4", "unit": "µg/mL"}, {"measurement": "inhibition at 4 µg/mL", "setting": "[2]; [5]", "value": "42.8 ± 7.92", "unit": "%"}]}
{"compound": "Nc1ccc(S(=O)(=O)Nc2ncccn2)cc1", "note": "[Sulfadiazine, reference compound]", "values": [{"measurement": "inhibition at 0.4 µg/mL", "setting": "[3]", "value": 40.8, "unit": "%"}, {"measurement": "inhibition at 0.4 µg/mL", "setting": "[4]", "value": 56.5, "unit": "%"}]}
{"compound": "CC1=CC(=O)C(C(C)C)CC1", "note": "(stereo not drawn) [Piperitone, piperitone]", "values": [{"measurement": "Natural compound concentration range with no toxicity to HFF cells", "setting": "[1]; human, 24 h", "value": "0.01 to 20", "unit": "µg/mL"}, {"measurement": "inhibition at 20 µg/mL", "setting": "[2]; [6]", "value": "31.1 ± 1.97", "unit": "%"}]}
{"compound": "C=CCc1cc(OC)c2c(c1)OCO2", "note": "[Myristicin, myristicin]", "values": [{"measurement": "Natural compound concentration range with no toxicity to HFF cells", "setting": "[1]; CCK-8, 24 h, DMEM with 1% FBS", "value": "0.01 to 40", "unit": "µg/mL"}, {"measurement": "inhibition at 40 µg/mL", "setting": "[2]; [7]", "value": "22.3 ± 3.46", "unit": "%"}]}
{"compound": "Cc1ccc(C(C)C)c(O)c1", "note": "[Thymol, thymol]", "values": [{"measurement": "Natural compound concentration range with no toxicity to HFF cells", "setting": "[1]; human, 24 h", "value": "0.01 to 16", "unit": "µg/mL"}, {"measurement": "inhibition at 16 µg/mL", "setting": "[2]; Toxoplasma gondii, 16 μg/mL, T. gondii proliferation in HFFs, read-out: Mean inhibition rate (% of control)", "value": "25.7 ± 2.31", "unit": "%"}]}
{"compound": "CC1(C)CC[C@]2(C(=O)O)CC[C@]3(C)C(=CC[C@@H]4[C@@]5(C)C[C@@H](O)[C@H](O)C(C)(C)[C@@H]5CC[C@]43C)[C@@H]2C1", "note": "[Maslinic acid, maslinic acid]", "values": [{"measurement": "Natural compound concentration range with no toxicity to HFF cells", "setting": "[1]; CCK-8, 24 h, DMEM with 1% FBS", "value": "0.01 to 4", "unit": "µg/mL"}, {"measurement": "inhibition at 4 µg/mL", "setting": "[2]; [7]", "value": "65.4 ± 4.53", "unit": "%"}]}
{"compound": "C/C=C/c1cc(OC)c2c(c1)C(C)C(c1ccc(O)c(OC)c1)O2", "note": "(stereo not drawn) [Dehydrodiisoeugenol, dehydrodiisoeugenol]", "values": [{"measurement": "Mean inhibition rate (% of control)", "setting": "[2]; [8]", "value": "8.14 ± 2.15", "unit": "%"}]}
{"compound": "licorice glycosides", "values": [{"measurement": "Mean inhibition rate (% of control)", "setting": "[2]; [8]", "value": "35.93 ± 4.78", "unit": "%"}]}
{"compound": "O=C(O)[C@@H](O)c1ccccc1", "note": "[L-mandelic acid]", "values": [{"measurement": "Natural compound concentration range with no toxicity to HFF cells", "setting": "[1]; CCK-8, 24 h, DMEM with 1% FBS", "value": "0.01 to 80", "unit": "µg/mL"}, {"measurement": "Mean inhibition rate (% of control)", "setting": "[2]; [8]", "value": "11.87 ± 2.84", "unit": "%"}]}
{"compound": "O=C(O)[C@H](O)c1ccccc1", "note": "[D-mandelic acid]", "values": [{"measurement": "Natural compound concentration range with no toxicity to HFF cells", "setting": "[1]; CCK-8, 24 h, DMEM with 1% FBS", "value": "0.01 to 80", "unit": "µg/mL"}, {"measurement": "Mean inhibition rate (% of control)", "setting": "[2]; [8]", "value": "9.30 ± 3.76", "unit": "%"}]}
{"compound": "O=c1c(-c2ccc(O)cc2)coc2cc(O)cc(O)c12", "note": "[Genistein, genistein]", "values": [{"measurement": "Natural compound concentration range with no toxicity to HFF cells", "setting": "[1]; CCK-8, 24 h, DMEM with 1% FBS", "value": "0.01 to 40", "unit": "µg/mL"}, {"measurement": "inhibition at 40 µg/mL", "setting": "[2]; [7]", "value": "22.3 ± 5.91", "unit": "%"}]}
{"compound": "O=c1c(-c2ccc(O)cc2)coc2cc(O[C@@H]3O[C@H](CO)[C@@H](O)[C@H](O)[C@H]3O)cc(O)c12", "note": "[Genistin, genistin]", "values": [{"measurement": "Natural compound concentration range with no toxicity to HFF cells", "setting": "[1]; CCK-8, 24 h, DMEM with 1% FBS", "value": "0.01 to 32", "unit": "µg/mL"}, {"measurement": "inhibition at 32 µg/mL", "setting": "[2]; Toxoplasma gondii, 32 μg/mL, T. gondii proliferation in HFFs, read-out: Mean inhibition rate (% of control)", "value": "26.3 ± 3.54", "unit": "%"}]}
{"compound": "COc1c(/C=C/C(=O)c2ccc(O)cc2)ccc(O)c1CC=C(C)C", "note": "[Licochalcone C, licochalcone C]", "values": [{"measurement": "Mean inhibition rate (% of control)", "setting": "[2]; 4 μg/mL, T. gondii proliferation in HFFs", "value": "54.91 ± 4.85", "unit": "%"}]}
{"compound": "COc1c(/C=C/C(=O)c2ccc(O)cc2)ccc(O)c1O", "note": "[Licochalcone B]", "values": [{"measurement": "Mean inhibition rate (% of control)", "setting": "[2]; 16 μg/mL, T. gondii proliferation in HFFs", "value": "51.67 ± 6.71", "unit": "%"}]}
{"compound": "CCCCCCCCCCCCCC(=O)O", "note": "[Myristic acid, myristic acid]", "values": [{"measurement": "Natural compound concentration range with no toxicity to HFF cells", "setting": "[1]; CCK-8, 24 h, DMEM with 1% FBS", "value": "0.01 to 20", "unit": "µg/mL"}, {"measurement": "inhibition at 20 µg/mL", "setting": "[2]; [6]", "value": "26.3 ± 1.32", "unit": "%"}]}
{"compound": "CCCCCCCCCCCCCC(=O)OC", "note": "[Methyl myristate, methyl myristate]", "values": [{"measurement": "Natural compound concentration range with no toxicity to HFF cells", "setting": "[1]; human, 24 h", "value": "0.01 to 160", "unit": "µg/mL"}, {"measurement": "inhibition at 160 µg/mL", "setting": "[2]; Toxoplasma gondii, 160 μg/mL, T. gondii proliferation in HFFs, read-out: Mean inhibition rate (% of control)", "value": "7.65 ± 2.64", "unit": "%"}]}
{"compound": "O=C(/C=C/c1ccc(O)c(O)c1)O[C@@H]1C[C@](O)(C(=O)O)C[C@@H](O)[C@H]1O", "note": "[Chlorogenic acid, chlorogenic acid]", "values": [{"measurement": "Natural compound concentration range with no toxicity to HFF cells", "setting": "[1]; human, 24 h", "value": "0.01 to 400", "unit": "µg/mL"}, {"measurement": "inhibition at 400 µg/mL", "setting": "[2]; Toxoplasma gondii, 400 μg/mL, T. gondii proliferation in HFFs, read-out: Mean inhibition rate (% of control)", "value": "34.6 ± 2.77", "unit": "%"}]}
